Data from the NIST ThermoML archive (doi:10.1016/j.fluid.2007.07.066).

Experiment: wn = mass fraction of the nth substance listed
Conditions: 101 kPa, Liquid; for speed of sound: Sing-around technique in a fixed-path interferometer

CCCO [propan-1-ol] + O
Conditions | mass density, 283.15 K [kg/m3] | mass density, 288.15 K [kg/m3] | mass density, 293.15 K [kg/m3] | mass density, 298.15 K [kg/m3] | mass density, 303.15 K [kg/m3] | speed of sound, 283.15 K [m/s] | speed of sound, 288.15 K [m/s] | speed of sound, 293.15 K [m/s] | speed of sound, 298.15 K [m/s] | speed of sound, 303.15 K [m/s]
w1 = 0.05 | 992.444 | 991.727 | 990.715 | 989.431 | 987.905 | 1501.2 | 1514.5 | 1526.2 | 1536.2 | 1544.7
w1 = 0.1 | 987.274 | 986.285 | 985.011 | 983.475 | 981.701 | 1547.4 | 1555.6 | 1562.4 | 1568 | 1572.2
w1 = 0.15 | 983.045 | 981.663 | 980.011 | 978.117 | 976.004 | 1584 | 1586.5 | 1588.1 | 1588.6 | 1588.1
